From patent US9896476B1, “Glycyrrhetic acid derivatives” (KING SAUD UNIVERSITY, priority 2017, dated 2018)
Several values for one entry are separate records, joined by “and”; a condition that tells them apart may be missing. Equal values may be shown once.

Tests used:
[1] = system: cotton pellet-induced granuloma; assay: Cotton pellet-induced granuloma bioassay; format: in vivo, rat; conditions: for ED50: rat cotton pellet granuloma; for The anti-inflammatory activity ED50: rat, compound-impregnated cotton pellets implanted s.c., 7 days, dose response 4, 7, 10 and 15 μmol
Protocol: An animal model cotton pellet-induced granuloma bioassay was used to determine ED50 for the compounds (2)-(4). Adult male Sprague Dawley rats (120-140 g), were used in the cotton pellet-induced granuloma bioassays. The rats were acclimated one week prior to use and allowed unlimited access to standard rat chow and water. Prior to the start of the experiment, the animals were randomly divided into groups of six rats each. Cotton pellet (35±1 mg) cut from dental rolls were impregnated with 0.2 ml (containing 0.01 mmol) of a solution of each of compounds (2)-(4) in chloroform, and the solvent was allowed to evaporate. Each cotton pellet was subsequently injected with 0.2 ml of an aqueous solution of antibiotics (1 mg penicillin G and 1.3 mg dihydrostreptomycin/ml). Two pellets were implanted subcutaneously, one in each axilla of the rat, under mild general anesthesia. One group of animals received the standard reference pharmaceutical indomethacin and the antibiotics at the same level. Pellets containing only the antibiotics were similarly implanted in control rats. Seven days later, the animals were sacrificed and the two cotton pellets, with adhering granulomas, were removed, dried for 48 h at 60° C. and weighed. The increment in dry weight (difference between the initial and final weight) was taken as a measure of the dry weight of granuloma±SEM. The dry weight of granuloma and the percentage reduction in dry weight of granuloma relative to the respective control value were calculated for all rats. The ED50 values were determined through dose response curves using doses of 4, 7, 10 and 15 μmol for each compound.

[2] = system: carrageenan-induced rat paw edema; assay: Carrageenan-induced rat paw edema; format: in vivo; conditions: for % Protection / Increase in paw edema (ml) ± SEM: 10 μmol/kg s.c. 1 h prior to carrageenan; for % Protection: 4 h, relative to DMSO control; for Increase in paw edema (ml) ± SEM: increase between 0 h and 4 h; for Activity relative to indomethacin: 10 μmol/kg s.c., indomethacin = 100
Protocol: Male albino rats weighing 120-150 g were used in these experiments. The rats were kept in an animal house under standard conditions of light and temperature with free access to food and water. The animals were randomly divided into groups of six rats each for each experimental and control group. The paw edema was induced by subplantar injection of […] of 2% carrageenan solution in saline (0.9%). […] A control group was injected with DMSO only. The volume of paw edema (ml) was determined by means of a plethysmometer immediately after carrageenan injection and 4 h later. The increase in paw volume between 0 h and 4 h after carrageenan injection was measured. The percentage protection against inflammation was calculated according to the following formula: % Protection=100%×(Vc−Vd)/Vc where Vc is the 4 h increase in paw volume in the control animals (control) and Vd is the 4 h increase in paw volume in the test animals. Data are expressed as the mean±SEM. Significant difference between the control and test groups was determined using Student's t-test and P values. The difference in results was considered significant when P<0.001.

Human COX-2 = target: T1, Human COX-2 (Homo sapiens, UniProt P35354); assay: Human COX-2 enzymatic assay; format: biochemical; conditions: for IC50: 5 min pre-incubation, 45 min incubation with [14C]-arachidonic acid at 24° C.; for Approximate selectivity ratio COX-1/COX-2: ratio of COX-1 IC50 to COX-2 IC50
T1 sequence (P35354 18-604): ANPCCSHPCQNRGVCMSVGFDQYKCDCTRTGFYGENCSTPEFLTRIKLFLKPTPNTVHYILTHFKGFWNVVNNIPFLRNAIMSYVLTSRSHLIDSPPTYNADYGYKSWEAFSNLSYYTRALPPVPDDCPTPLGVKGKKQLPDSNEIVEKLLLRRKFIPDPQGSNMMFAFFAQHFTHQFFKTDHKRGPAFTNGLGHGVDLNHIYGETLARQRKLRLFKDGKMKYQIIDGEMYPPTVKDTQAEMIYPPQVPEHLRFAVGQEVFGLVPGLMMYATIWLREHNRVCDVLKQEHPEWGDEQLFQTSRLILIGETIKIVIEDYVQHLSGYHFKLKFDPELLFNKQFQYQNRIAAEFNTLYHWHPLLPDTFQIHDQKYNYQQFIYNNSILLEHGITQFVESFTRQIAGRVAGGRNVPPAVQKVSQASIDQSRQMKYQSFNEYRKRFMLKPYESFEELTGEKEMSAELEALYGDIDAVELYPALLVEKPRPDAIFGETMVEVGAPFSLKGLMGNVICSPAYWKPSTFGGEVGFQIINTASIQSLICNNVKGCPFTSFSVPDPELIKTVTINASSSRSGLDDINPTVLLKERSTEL
Protocol: (§1) Human COX-1 and COX-2 activities were determined as described by Wakitani et al. 0.2 ml of 100 mmol Tris HCl buffer (pH 8) containing hematin (2 mmol) and tryptophan (5 mmol) as cofactors. The reaction mixture was pre-incubated with each test compound individually for 5 min at 24° C. [14C]-arachidonic acid (100.00 dpm, 30 mmol) was added to the mixture and then incubated for 2 min (for COX-1) or 45 min (for COX-2) at 24° C. The reaction was stopped by the addition of 400 μl of a solution composed of Et2O/MeOH/1 M citric acid (30:4:1, v/v/v). After centrifugation of the mixture at 1700×/g for 5 min at 4° C., 50 μl of the upper phase was applied to a thin layer chromatography plate. Thin layer chromatography was performed at 4° C. with solvent system of Et2O/MeOH/AcOH (90:2:0.1, v/v/v). Enzyme activity was calculated from the percent conversion of arachidonic acid to PGH2 and its de-composition products, using radiometric photographic system.

Human COX-1 = Human COX-1 (Homo sapiens, UniProt P23219); assay: Human COX-1 enzymatic assay; format: biochemical; conditions: 5 min pre-incubation, 2 min incubation with [14C]-arachidonic acid at 24° C.
Protocol: as §1

Acute toxicity in mice = conditions: mouse, in vivo; male mice; route for the LD50 not stated (oral and intraperitoneal tests described)
Protocol: […]. The animals were divided into groups of six mice each. The compounds were given orally, suspended in 1% gum acacia, in doses of 1, 10, 100, 200, 250, 300 mg/kg.
The mortality percentage in each group was recorded after 24 h.
Additionally, the test compounds were investigated for their parenteral acute toxicity in groups of six mice each as reported earlier. The compounds, or their vehicle propylene glycol (control), were given by intraperitoneal injection in doses of 10, 25, 50, 75, 100 mg/kg. The percentage survival was followed up to seven days.

pyloric ligation ulcer = assay: Pyloric ligation ulcer model (antiulcer activity); format: in vivo, rat; conditions: rats, oral 30 min prior to pyloric ligation, 4 h, compounds 100 mg/kg, omeprazole 40 mg/kg; for Free acid / Total acid: gastric contents
Protocol: Pyloric ligation ulcer models were used to test each of compounds (2)-(4) for antiulcer activity. Male rats (140 and 175 g) were selected for pyloric ligation ulcer model experiments and divided into eleven groups consisting of six animals each. The rats were fasted overnight. One group received normal saline 2 ml/kg (negative control), the second group received omeprazole 40 mg/kg (positive control) and the other groups received each of the compounds (2)-(4) (100 mg/kg) by oral route 30 min prior to pyloric ligation. Animals were sacrificed 4 h later and their stomachs were opened to collect the gastric contents. The gastric contents were centrifuged at 1000 rpm for 10 min. One ml of the supernatant liquid was pipetted out and diluted to a total volume of 10 ml with distilled water. The solution was titrated against 0.01 N sodium hydroxide solution using Topfer's reagent to indicate the end point when the solution turned […]. The volume of NaOH consumed was taken as corresponding to the free acidity. Titration was further continued until the solution regained pink color. The volume of sodium hydroxide solution required to achieve the pink color was noted and total acidity calculated. After opening the stomach, the ulcer index was calculated.
The results are expressed as mean±SEM. The difference between groups was determined using the one way analysis of variance (ANOVA) followed by Dunnett's test. P<0.05 was considered significant.

H+/K+-ATPase = target: T2, H+/K+-ATPase (Sus scrofa, UniProt P19156); assay: H+/K+-ATPase (proton pump) inhibition in membrane vesicles of stomach mucosa; format: biochemical; conditions: pig gastric membrane vesicles, 37° C.; pre-incubation pH (6.0 or 7.4) not given
T2 construct: Membrane vesicles containing H^+/K^+-ATPase were prepared from pig stomachs; from tissue; host or cells: pig gastric mucosa membrane vesicles
Protocol: Membrane vesicles containing H^+/K^+-ATPase were prepared from pig stomachs obtained from a local slaughter house. Pigs were fasted overnight before slaughter. The gastric mucosa of four stomachs was rinsed with cold saturated NaCl solution for 3-5 min. The superficial cells, cell debris plus the mucus were wiped off with the edge of a plastic ruler and paper towels. The mucosa was scraped off. About 100 g of scrapings were divided into portions of 10 g and homogenized in 0.25 M sucrose with seven strokes in a Potter-Elvehjem Teflon-glass homogenizer. […] The pellet was discarded. The supernatant was centrifuged at 75,000 g for 1 h. The resulting microsomal pellet was homogenized in 30 ml 0.25 M sucrose. Aliquots of 15 ml were transferred to 100 ml centrifuge tubes and layered on top of step gradients, from the bottom comprising 25 ml 37% sucrose (w/v) and 45 ml 7.5% Ficoll (w/v) in 0.25 M sucrose. The tubes were centrifuged at 75,000 g for 1 h in a 6×100 ml ME angle rotor at 4° C. The gradient was then fractionated by pumping Fluoroinert 70 through narrow tubing in a fractionating cap down to the bottom of the tube. Fractions are collected from top through a center hole in the fractionating cap. The yield of vesicles in a typical preparation is about 50-75 mg protein. In order to maintain a stable vesicular structure for a long period of time, the vesicles were frozen at −70° C. under nitrogen, and could then be kept for several months without decrease of H^+/K^+-ATPase activity. The ATPase activity was measured at 37° C. as the release of inorganic phosphate (Pi) from ATP. […] Then, the medium of pH 6.0 is adjusted with HEPES/Tris buffer to pH 7.4. The enzyme reaction is started by addition of nigericin and Tris/ATP. The total reaction volume is 1 ml, containing 20 μg vesicular protein, 4 mM MgCl2, 10 mM KCl, 20 μM nigericin, 2 mM Tris-ATP, 10 mM HEPES and additionally 2 mM Pipes for the pre-incubation medium at pH 6.0. After […] at 37° C., the reaction is stopped by the addition of […] of 50% trichloroacetic acid. The denatured protein was spun down and the Pi content is determined according to Le Bel et al. (1978) and based on the reduction of a phosphomolybdate complex by p-methyl-aminophenol sulfate in a copper acetate buffer or according to Carter and Karl (1982) based on the reaction of phosphomolybdate with the basic dye malachite green. […] IC50 values of the test compound at different pH values were compared with IC50 values of the standard. Statistical differences (P<0.05) were calculated by Student's t-test.

T2 sequence (P19156 2-1034 limits assumed): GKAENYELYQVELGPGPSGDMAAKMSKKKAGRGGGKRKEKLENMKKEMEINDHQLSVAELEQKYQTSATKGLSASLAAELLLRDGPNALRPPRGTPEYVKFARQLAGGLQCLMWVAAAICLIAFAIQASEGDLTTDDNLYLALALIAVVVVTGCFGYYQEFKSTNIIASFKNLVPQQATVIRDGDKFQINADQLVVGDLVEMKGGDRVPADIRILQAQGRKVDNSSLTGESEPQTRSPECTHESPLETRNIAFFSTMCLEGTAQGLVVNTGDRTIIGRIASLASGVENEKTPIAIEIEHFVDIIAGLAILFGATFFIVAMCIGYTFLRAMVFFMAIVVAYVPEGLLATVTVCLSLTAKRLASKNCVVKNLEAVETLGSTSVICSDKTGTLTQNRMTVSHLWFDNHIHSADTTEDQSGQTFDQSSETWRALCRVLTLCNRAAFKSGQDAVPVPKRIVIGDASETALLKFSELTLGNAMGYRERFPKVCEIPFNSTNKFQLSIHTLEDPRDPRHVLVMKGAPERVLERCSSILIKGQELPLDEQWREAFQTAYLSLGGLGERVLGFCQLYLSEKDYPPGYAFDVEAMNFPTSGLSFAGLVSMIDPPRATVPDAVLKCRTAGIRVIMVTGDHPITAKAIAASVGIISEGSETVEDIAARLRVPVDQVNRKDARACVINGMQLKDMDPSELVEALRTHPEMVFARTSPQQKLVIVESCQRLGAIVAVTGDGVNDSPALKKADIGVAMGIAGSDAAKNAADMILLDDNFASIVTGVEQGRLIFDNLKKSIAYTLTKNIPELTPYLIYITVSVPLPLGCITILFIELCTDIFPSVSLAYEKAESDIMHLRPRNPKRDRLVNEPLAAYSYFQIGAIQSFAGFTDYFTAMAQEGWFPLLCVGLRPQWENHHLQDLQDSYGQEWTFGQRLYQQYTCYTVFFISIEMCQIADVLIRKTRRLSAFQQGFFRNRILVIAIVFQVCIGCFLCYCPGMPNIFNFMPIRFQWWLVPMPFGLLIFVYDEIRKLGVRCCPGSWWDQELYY
T2 sequence (P18434 whole entry partner): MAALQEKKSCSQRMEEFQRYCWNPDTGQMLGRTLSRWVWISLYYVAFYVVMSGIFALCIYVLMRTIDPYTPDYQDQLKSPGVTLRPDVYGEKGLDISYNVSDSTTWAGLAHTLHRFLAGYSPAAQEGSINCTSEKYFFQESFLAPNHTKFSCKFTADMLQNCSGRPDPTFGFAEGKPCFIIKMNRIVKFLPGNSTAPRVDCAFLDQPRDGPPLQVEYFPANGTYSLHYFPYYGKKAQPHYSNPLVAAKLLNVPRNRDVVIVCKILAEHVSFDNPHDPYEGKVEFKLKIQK
Sequence of Human COX-1 (P23219 24-599): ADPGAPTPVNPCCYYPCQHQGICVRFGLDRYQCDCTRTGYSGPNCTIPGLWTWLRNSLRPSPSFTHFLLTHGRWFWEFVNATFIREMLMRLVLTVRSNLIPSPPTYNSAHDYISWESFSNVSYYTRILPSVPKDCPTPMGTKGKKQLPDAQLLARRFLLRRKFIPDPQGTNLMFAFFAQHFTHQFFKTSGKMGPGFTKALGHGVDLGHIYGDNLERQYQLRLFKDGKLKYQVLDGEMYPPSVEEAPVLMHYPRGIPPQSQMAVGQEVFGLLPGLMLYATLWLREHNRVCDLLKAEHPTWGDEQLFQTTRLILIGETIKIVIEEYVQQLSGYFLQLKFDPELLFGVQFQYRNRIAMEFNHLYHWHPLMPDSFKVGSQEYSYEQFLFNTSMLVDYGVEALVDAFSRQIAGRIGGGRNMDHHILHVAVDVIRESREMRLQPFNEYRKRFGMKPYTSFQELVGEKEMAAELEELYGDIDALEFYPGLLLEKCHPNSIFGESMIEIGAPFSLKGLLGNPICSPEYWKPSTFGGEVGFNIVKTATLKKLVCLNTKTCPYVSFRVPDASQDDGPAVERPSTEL

For `CC1(C(=O)O)CCC2(C)CCC3(C)C(=CC(=O)C4C5(C)C/C(=C\c6ccc(F)cc6)C(=O)C(C)(C)C5CCC43C)C2C1` (stereo not drawn) [Compound 2, 2-(4-fluorobenzylidene)-3,11-dioxo-18β-olean-12-en-30-oic acid], the ED50 [1] was 1.52 µmol, the “The anti-inflammatory activity ED50” value [1] was 1.52 ± 0.0019 µmol and the “% Protection” value [2] was 98.40%. The “Increase in paw edema (ml) ± SEM” value [2] was 0.0157 ± 0.0004 mL, the “Activity relative to indomethacin” value [2] was 132.09 and the IC50 (Human COX-2) was 0.109 µM. For the same molecule, the “Approximate selectivity ratio COX-1/COX-2” value (Human COX-2) was 2733.94, the IC50 (Human COX-1) was 298 µM and the LD50 (Acute toxicity in mice) was 3100 mg/kg. The Free acid (pyloric ligation ulcer) was 0.09 mEq/L, the Total acid (pyloric ligation ulcer) was 0.09 mEq/L and the “Ulcer Index” value (pyloric ligation ulcer) was 1.16. For the same molecule, the IC50 (H+/K+-ATPase) was 11.46 ± 0.009 µM.
With `Cn1nc2c(c1-c1ccc(F)cc1)CC1(C)C(CCC3(C)C1C(=O)C=C1C4CC(C)(C(=O)O)CCC4(C)CCC13C)C2(C)C` (stereo not drawn) [Compound 3, 2-(4-fluorobenzylidene)-3,11-dioxo-18β-olean[3,2-c]-1′H-5′-(4-fluorophenyl)-N-methylpyrazoline-12-en-30-oic acid] the ED50 [1] was 1.47 µmol, the “The anti-inflammatory activity ED50” value [1] was 1.47 ± 0.0021 µmol and the “% Protection” value [2] was 98.49%. For the same molecule, the “Increase in paw edema (ml) ± SEM” value [2] was 0.0148 ± 0.0003 mL, the “Activity relative to indomethacin” value [2] was 132.21 and the IC50 (Human COX-2) was 0.091 µM. For the same molecule, the “Approximate selectivity ratio COX-1/COX-2” value (Human COX-2) was 3438.57 and 3428.57, the IC50 (Human COX-1) was 312 µM and the LD50 (Acute toxicity in mice) was 3360 mg/kg. For the same molecule, the Free acid (pyloric ligation ulcer) was 0.08 mEq/L, the Total acid (pyloric ligation ulcer) was 0.08 mEq/L and the “Ulcer Index” value (pyloric ligation ulcer) was 1.12. It also gave an IC50 (H+/K+-ATPase) of 10.03 ± 0.0072 µM.
With `Cn1nc2c(c1-c1ccc(F)cc1)CC1(C)C(CCC3(C)C1C(=O)C=C1C4CC5(C)CC(OC5=O)C4(C)CCC13C)C2(C)C` (stereo not drawn) [Compound 4, 2-(4-fluorobenzylidene)-3,11-dioxo-18β-olean[3,2-c]-1′H-5′-(4-fluorophenyl)-N-methylpyrazoline-12-en-30-oic acid (30→22β) lactone] the ED50 [1] was 1.35 µmol, the “The anti-inflammatory activity ED50” value [1] was 1.35 ± 0.0034 µmol and the “% Protection” value [2] was 98.77%. For the same molecule, the “Increase in paw edema (ml) ± SEM” value [2] was 0.0121 ± 0.0002 mL, the “Activity relative to indomethacin” value [2] was 132.58 and the IC50 (Human COX-2) was 0.087 µM. The “Approximate selectivity ratio COX-1/COX-2” value (Human COX-2) was 3965.52, the IC50 (Human COX-1) was 345 µM and the LD50 (Acute toxicity in mice) was 3460 mg/kg. For the same molecule, the Free acid (pyloric ligation ulcer) was 0.06 mEq/L, the Total acid (pyloric ligation ulcer) was 0.06 mEq/L and the “Ulcer Index” value (pyloric ligation ulcer) was 1.04. The IC50 (H+/K+-ATPase) was 9.21 ± 0.0076 µM.
For `COc1ccc2c(c1)c(CC(=O)O)c(C)n2C(=O)c1ccc(Cl)cc1` [Indomethacin, reference compound], the “The anti-inflammatory activity ED50” value [1] was 9.568 ± 0.098 µmol, the “The anti-inflammatory activity ED50” value ([1]; listed as indomethacin) was 9.568 µmol and the “Increase in paw edema (ml) ± SEM” value [2] was 0.25 ± 0.0005 mL.
In the case of `COc1ccc2[nH]c([S+]([O-])Cc3ncc(C)c(OC)c3C)nc2c1` (stereo not shown) [Omeprazole, reference compound], the Free acid (pyloric ligation ulcer) is reported as 0.43 mEq/L, the Total acid (pyloric ligation ulcer) is reported as 0.33 mEq/L and the “Ulcer Index” value (pyloric ligation ulcer) is reported as 3.31. The IC50 (H+/K+-ATPase) was 66.1 ± 1.11 µM.
